From PubChem BioAssay AID179 (DTP/NCI, 2004)
Calls of active or inactive are those of the source.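 How the source made its calls: active means compounds giving half or more protection of infected cells from virus-caused growth loss, again on retest; inactive means the rest.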

Tested on: CEM cells HIV-1 protection, formazan growth assay
Assay: NCI AIDS Antiviral Assay
Conditions: for IC50: measured here: growth of uninfected CEM cells
Protocol: The ability of compounds to protect human CEM cells from HIV-1 infection is measured as a screen for new compounds capable of inhibiting the HIV virus. Five concentrations of drug were tested on uninfected and infected cells and cell growth was measured using a soluble formazan assay. […] Compounds that provided at least 50% protection were retested. Compounds that provided at least 50% protection on retest were listed as moderately active. Compounds that reproducibly provided 100% protection were listed as confirmed active. […] Note that the inability to provide protection could be due to toxicity.

`CCc1n[nH]c(=O)n1-c1ccc2ccccc2c1` gave an EC50 greater than 100 µM and an IC50 greater than 100 µM.

Molecule `Cc1cc(C)c(C#N)c(SSC(Cl)(Cl)Cl)n1` has an EC50 greater than 200 µM and an IC50 of 32.4 µM.

In the case of `CCCCn1c(N)n[nH]c1=S`, the outcome is reported as “inactive”.

Work on `NC1CC(=O)c2c(Cl)sc(Cl)c21` (stereo not given) yielded an EC50 greater than 200 µM and an IC50 of 3.47 µM.

Work on `Cc1ccc2nc(-c3ccccc3[N+](=O)[O-])[nH]c2c1` yielded an EC50 greater than 269 µM and an IC50 of 57.5 µM.

Molecule `CCCCc1ccc(C#CC#Cc2ccc(CCCC)s2)s1` has an EC50 greater than 200 µM and an IC50 greater than 200 µM.

Molecule `CC(=O)NCCc1c(-c2[nH]c3ccccc3c2CCNC(C)=O)[nH]c2ccccc12` has an EC50 of 51.3 µM and an IC50 of 107 µM.

With `Nc1ccccc1C(=O)N=Nc1c(O)[nH]c2ccccc12` the EC50 was greater than 200 µM and the IC50 was greater than 200 µM.

Work on `O=C1C[C@@H]2[C@@H](c3ccccc3)[C@@H]3C(=O)c4ccccc4NC(=O)[C@H]3[C@]2(O)c2ccccc2N1` yielded an EC50 of 26.9 µM and an IC50 of 30.9 µM.

`COc1ccc(C2SCC(=O)N2c2ccc(-n3c(-c4ccccc4)nc4ccccc4c3=O)cc2)cc1` (stereo not given) was tested, and the EC50 was greater than 200 µM and the IC50 was 158 µM.

For `C[C@@]1(OC(=O)c2cc([N+](=O)[O-])cc([N+](=O)[O-])c2)C[C@@H]2CCCC[C@@H]21`, the outcome was “inactive”.

`CN(C)S(=O)(=O)c1cc(Cl)cc(Cc2cc(Cl)cc(S(=O)(=O)N(C)C)c2O)c1O` was tested, and the EC50 was greater than 74.1 µM and the IC50 was 4.37 µM.

`Cc1ccc(/C(O)=C/c2nc3ccc([N+](=O)[O-])cc3nc2/C=C(\O)c2ccc(C)cc2)cc1` was tested, and the EC50 was greater than 100 µM and the IC50 was 97.7 µM.

For `O=C1C=CC2(CCCCCCC2=O)CC1` (stereo not given), the outcome was “inactive”.

`CC1=NS(=O)(=O)NC(C)(C)C1` showed an EC50 greater than 200 µM and an IC50 greater than 200 µM.

`CC1=CCS(=O)(=O)C1C(O)C1=C(C)CCCC1(C)C` (stereo not given) showed an EC50 greater than 200 µM and an IC50 of 40.7 µM.

Molecule `C[N+]12CN3CN(C1)CP(=O)(C3)C2` has an EC50 greater than 794 µM and an IC50 of 115 µM.

Work on `O=C1C(/C=C/c2ccc(Cl)cc2)=NNC2N1N=C1NC(=O)C3(NN12)c1ccccc1-c1ccccc13` (stereo not given) yielded an EC50 greater than 200 µM and an IC50 of 132 µM.

`COc1cc(Nc2cnc3cc(F)c(F)cc3n2)cc(OC)c1OC` was tested, and the EC50 was greater than 200 µM and the IC50 was greater than 200 µM.

Work on `CC(C)(C)NC1C2CCC(C)(C1O)C2(C)C` (stereo not given) yielded an EC50 greater than 200 µM and an IC50 greater than 200 µM.

With `CC(/C=C/c1ccccc1)=N/NS(=O)(=O)c1ccc(N)cc1` the EC50 was greater than 115 µM and the IC50 was greater than 115 µM.

`CCCCCCCCCCCCC1N=C(N)NC2(CCCO2)C1C(=O)OC` (stereo not given) gave an EC50 greater than 200 µM and an IC50 of 5.75 µM.

`COc1ccc(CC2NC(=O)C3CCCN3C2=O)cc1` (stereo not given) was tested, and the EC50 was greater than 200 µM and the IC50 was greater than 200 µM.

With `C/C(=N\N=C(\N)SB(F)F)c1ccc2ccccc2c1` the EC50 was greater than 200 µM and the IC50 was 29.5 µM.

Work on `Cc1ccc(C2SCc3nc4ccccc4n32)cc1` (stereo not given) yielded an EC50 greater than 200 µM and an IC50 of 1.02 µM.

With `Cc1nn(C)c2c1NC(=O)CS2` the outcome was “inactive”.

`Cn1cc(N)cc1C(=O)Nc1cc(C(=O)Nc2ccc(S(=O)(=O)O)c3cc(S(=O)(=O)O)ccc23)n(C)c1` gave an EC50 of 31.6 µM and an IC50 of 324 µM.

For `CCOC(=O)C1=C(C)NC(=S)NC1c1ccccc1` (stereo not given), the EC50 was greater than 93.3 µM and the IC50 was greater than 93.3 µM.

Work on `COn1c2ccccc2c2c1cc1ccccc1[n+]2[O-]` yielded an EC50 greater than 67.6 µM and an IC50 of 31.6 µM.

Work on `NC(=S)N/N=C1\CCc2ccccc2C1` yielded an EC50 greater than 575 µM and an IC50 of 15.8 µM.

`COC1=C(C)C(=O)c2nccc(C)c2C1=O` was tested, and the outcome was “inactive”.

`C#CCNC(CS)C(=O)O` (stereo not given) was tested, and the EC50 was greater than 200 µM and the IC50 was greater than 200 µM.

In the case of `Nc1n[n+](CC(=O)c2ccccc2)c2sc(-c3ccccc3)nn12`, the EC50 is reported as greater than 200 µM and the IC50 is reported as 45.7 µM.

With `O=[N+]([O-])c1cccc2nsnc12` the EC50 was greater than 145 µM and the IC50 was 23.4 µM.

`NC(=O)c1ncn(CC2(CO)CCC2)c1N` was tested, and the EC50 was greater than 200 µM and the IC50 was greater than 200 µM.

Molecule `Cc1noc(C)c1N=Nc1ccc2nonc2c1N` has an EC50 greater than 200 µM and an IC50 greater than 200 µM.

Molecule `O=C(NC(=O)c1c(F)cccc1F)Nc1ncc(Br)cc1Br` has an EC50 greater than 200 µM and an IC50 greater than 200 µM.

`Nc1nc(=O)[nH]c(N)c1N=O` was tested, and the EC50 was greater than 200 µM and the IC50 was greater than 200 µM.

Molecule `Cc1nc(N)c(N2CCN(S(N)(=O)=O)CC2)c(=O)[nH]1` has an EC50 greater than 200 µM and an IC50 greater than 200 µM.

`Cc1cn(C(C)OCCN(OC(=O)Oc2ccccc2)C(=O)Oc2ccccc2)c(=O)[nH]c1=O` (stereo not given) gave an EC50 greater than 200 µM and an IC50 greater than 200 µM.

For `Cc1[nH]c(=O)[nH]c(=O)c1C(=O)O`, the EC50 was greater than 200 µM and the IC50 was greater than 200 µM.

For `O=c1ccn(C/C=C/c2ccccc2)c(=S)n1C/C=C/c1ccccc1`, the outcome was “inactive”.

`C=CCNC(=S)/N=C\C(C(=O)OCC)=C(/O)C(=O)OCC` gave an EC50 greater than 200 µM and an IC50 greater than 200 µM.
